Measurements published in ChEMBL document CHEMBL1201862, “PubChem BioAssay data set” (2004).
Activity calls are given as the source filed them.

Assays:
Estrogen receptor beta [1] = target: T1, Estrogen receptor beta (Homo sapiens, UniProt Q92731);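 also: recombinant ER-beta bound to coactivator SRC1 peptide in presence of estradiol agonist; inhibitors block coactivator peptide binding and lower the FRET signal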
Estrogen receptor beta [2] = target: T1, Estrogen receptor beta; assay: blockers of SRC-3 recruitment to ERβ – biochemical, ELISA, streptavidin-HRP readout, orthogonal assay, confirmation (AID 1060)
Bcl-2-like protein 10 = target: T2, Bcl-2-like protein 10 (Homo sapiens, UniProt Q9HD36); assay: Bcl-B/TR3 peptide binding disruption – biochemical, fluorescence polarization, FITC-TR3 peptide, selectivity assay for Bfl-1 inhibitor project, primary screen (AID 748);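 also: fluorescence polarization from a fluorescein-labelled TR3 peptide binding purified Bcl-B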
T2 sequence (Q9HD36 whole entry): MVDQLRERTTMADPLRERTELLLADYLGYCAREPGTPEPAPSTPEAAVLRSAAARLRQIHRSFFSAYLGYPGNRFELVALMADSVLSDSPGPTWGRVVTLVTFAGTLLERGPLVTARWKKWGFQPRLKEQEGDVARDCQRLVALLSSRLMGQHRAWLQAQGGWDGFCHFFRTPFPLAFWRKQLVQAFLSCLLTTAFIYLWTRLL

[3] = Luminescence Cell-Based Dose Response HTS to Identify Inhibitors of 5'UTR Stem-Loop Driven Prion Protein mRNA Translation in H4 Neuroglioblastoma Cells. [Related pubchem assays: 1827 (Project Summary), 1813 (Primary HTS)]; type: functional
[4] = alpha-synuclein stem-loop luciferase translation blockers – H4 neuroglioma cells, luminescence, confirmation (AID 1988); type: functional, cell-based
[5] = target: Luciferin 4-monooxygenase (Photinus pyralis, UniProt P08659); assay: Counter Screen for Luciferase-based Assay Positives. [Related pubchem assays: 620, 618, 411 ]
HT-1080 = assay: HT1080 cell viability loss – fluorescence readout (AID 620); type: functional, cell-based; conditions: Homo sapiens
[6] = M. tuberculosis H37Rv growth inhibitors, H37Rv strain (AID 1626); type: functional
[7] = target: T3, Replicative DNA helicase DnaB (Mycobacterium tuberculosis, UniProt P9WMR3); assay: DnaB intein splicing inhibitors, dose response, biochemical, cell-free fluorescence (AID 449749); type: functional
T3 sequence (P9WMR3 whole entry): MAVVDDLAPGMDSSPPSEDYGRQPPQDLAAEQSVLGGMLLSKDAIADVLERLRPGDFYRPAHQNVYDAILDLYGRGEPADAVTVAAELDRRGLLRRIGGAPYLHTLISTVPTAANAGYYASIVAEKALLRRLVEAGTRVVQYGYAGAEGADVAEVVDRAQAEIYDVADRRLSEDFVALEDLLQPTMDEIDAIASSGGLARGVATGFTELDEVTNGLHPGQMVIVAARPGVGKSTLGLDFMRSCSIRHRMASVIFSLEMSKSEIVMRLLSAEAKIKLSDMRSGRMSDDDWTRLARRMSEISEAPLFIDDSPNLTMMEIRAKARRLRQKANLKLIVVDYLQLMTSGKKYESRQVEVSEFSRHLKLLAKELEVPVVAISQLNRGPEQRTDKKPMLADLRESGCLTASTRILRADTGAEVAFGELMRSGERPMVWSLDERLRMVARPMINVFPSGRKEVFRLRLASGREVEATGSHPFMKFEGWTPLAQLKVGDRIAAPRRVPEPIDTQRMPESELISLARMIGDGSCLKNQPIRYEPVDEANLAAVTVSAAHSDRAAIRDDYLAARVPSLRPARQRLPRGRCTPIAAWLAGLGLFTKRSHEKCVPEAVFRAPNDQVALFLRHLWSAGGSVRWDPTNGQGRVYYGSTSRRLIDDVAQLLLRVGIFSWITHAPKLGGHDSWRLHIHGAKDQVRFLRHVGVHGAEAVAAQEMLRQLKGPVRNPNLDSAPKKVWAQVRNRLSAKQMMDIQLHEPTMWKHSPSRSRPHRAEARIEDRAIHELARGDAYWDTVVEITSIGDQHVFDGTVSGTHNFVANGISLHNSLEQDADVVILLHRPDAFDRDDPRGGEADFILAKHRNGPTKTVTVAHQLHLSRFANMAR

[8] = target: T4, Microphthalmia-associated transcription factor (Homo sapiens, UniProt O75030); assay: reducers of TRPM1 reporter luminescence, concentration series – cell-based, SK-MEL-5, cherry-picked, set 3, MITF inhibitor project, dose response (AID 493073); type: functional;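 also: SK-MEL-5 melanoma cells with luciferase driven by the MITF target TRPM1 promoter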
T4 sequence (O75030 whole entry): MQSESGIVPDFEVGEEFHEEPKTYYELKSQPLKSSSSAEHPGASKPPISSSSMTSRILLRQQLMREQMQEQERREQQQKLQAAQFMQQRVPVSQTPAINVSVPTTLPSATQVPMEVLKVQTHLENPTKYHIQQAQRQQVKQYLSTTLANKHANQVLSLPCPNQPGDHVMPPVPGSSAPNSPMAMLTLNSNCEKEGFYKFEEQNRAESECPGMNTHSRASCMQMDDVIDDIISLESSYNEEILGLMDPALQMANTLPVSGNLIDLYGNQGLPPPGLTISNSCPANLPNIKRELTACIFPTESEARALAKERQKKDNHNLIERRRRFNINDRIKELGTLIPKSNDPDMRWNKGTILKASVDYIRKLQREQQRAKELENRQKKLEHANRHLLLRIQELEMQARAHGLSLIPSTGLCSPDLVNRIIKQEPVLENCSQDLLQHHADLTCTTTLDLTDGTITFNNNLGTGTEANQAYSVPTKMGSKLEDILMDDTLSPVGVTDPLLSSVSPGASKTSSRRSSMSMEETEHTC

[9] = microbe, parasite or virus in culture; type: functional; conditions: Mycobacterium tuberculosis
[10] = Luminescent dose response cell-based high throughput screening assay for inhibitors of the Janus kinase 2 mutant JAK2V617F. [Related pubchem assays: 1446 (Primary screen.), 1521 (Confirmation assay.), 1486 (Counter screen.)]; type: functional
Protein RecA = target: T5, Protein RecA (Mycobacterium tuberculosis, UniProt P9WHJ3); assay: Fluorescence Cell-Free Homogeneous Dose Retest to Identify Inhibitors of RecA-Intein Splicing Activity. [Related pubchem assays (depositor defined):AID2097, AID2223, AID489010, AID492950]; type: functional
T5 sequence (P9WHJ3 whole entry): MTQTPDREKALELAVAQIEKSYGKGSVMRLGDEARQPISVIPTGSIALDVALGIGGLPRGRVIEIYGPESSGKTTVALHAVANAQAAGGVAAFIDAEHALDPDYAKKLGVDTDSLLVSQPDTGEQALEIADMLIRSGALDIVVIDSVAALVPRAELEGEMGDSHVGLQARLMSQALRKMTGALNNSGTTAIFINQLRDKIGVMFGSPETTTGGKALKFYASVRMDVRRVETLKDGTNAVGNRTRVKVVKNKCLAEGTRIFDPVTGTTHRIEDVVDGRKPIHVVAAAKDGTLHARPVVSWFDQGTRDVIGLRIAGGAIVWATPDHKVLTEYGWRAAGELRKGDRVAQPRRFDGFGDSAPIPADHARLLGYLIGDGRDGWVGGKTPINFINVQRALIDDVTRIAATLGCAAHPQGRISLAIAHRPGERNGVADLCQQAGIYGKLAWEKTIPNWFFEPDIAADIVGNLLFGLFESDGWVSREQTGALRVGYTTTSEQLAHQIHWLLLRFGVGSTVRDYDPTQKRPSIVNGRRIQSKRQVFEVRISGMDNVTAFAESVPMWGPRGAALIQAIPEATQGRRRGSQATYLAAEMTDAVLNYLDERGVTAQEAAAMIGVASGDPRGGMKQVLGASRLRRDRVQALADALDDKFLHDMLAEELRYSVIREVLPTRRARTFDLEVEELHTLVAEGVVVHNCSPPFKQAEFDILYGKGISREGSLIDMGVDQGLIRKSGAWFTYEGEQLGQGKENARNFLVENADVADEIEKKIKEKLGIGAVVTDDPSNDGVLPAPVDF

[11] = Trypanosoma cruzi growth suppression in host cells – NIH3T3 host cells, beta-gal luminescence, confirmation (AID 2044); type: functional, cell-based;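 also: intracellular parasites grown in NIH/3T3 mouse fibroblasts as host cells; luminescent beta-galactosidase reporter signal from transgenic T. cruzi replicating inside host cells; inhibitors lower the luminescence signal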
cells [12] = assay: cells
[13] = NIH3T3 cell viability loss – ATP luminescence, mouse fibroblasts, counter-screen, dose response (AID 2010); type: functional, cell-based;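 also: cells exposed to compound for about 90 hours before reading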
[14] = target: Voltage-gated inwardly rectifying potassium channel KCNH2 (Homo sapiens, UniProt Q12809); assay: concentration-dependent hERG rescue from blockers – cell-based, thallium flux, dose response (AID 2121); type: ADME
[15] = target: T6, Corticotropin-releasing factor receptor 2/Corticotropin-releasing factor-binding protein (Homo sapiens, UniProt P24387+Q13324); assay: activators of CRF receptor 2 with binding protein – uHTS hits, confirmation (AID 602473); type: functional; conditions: read-out: EC50_Mean
T6 sequence (Q13324 whole entry): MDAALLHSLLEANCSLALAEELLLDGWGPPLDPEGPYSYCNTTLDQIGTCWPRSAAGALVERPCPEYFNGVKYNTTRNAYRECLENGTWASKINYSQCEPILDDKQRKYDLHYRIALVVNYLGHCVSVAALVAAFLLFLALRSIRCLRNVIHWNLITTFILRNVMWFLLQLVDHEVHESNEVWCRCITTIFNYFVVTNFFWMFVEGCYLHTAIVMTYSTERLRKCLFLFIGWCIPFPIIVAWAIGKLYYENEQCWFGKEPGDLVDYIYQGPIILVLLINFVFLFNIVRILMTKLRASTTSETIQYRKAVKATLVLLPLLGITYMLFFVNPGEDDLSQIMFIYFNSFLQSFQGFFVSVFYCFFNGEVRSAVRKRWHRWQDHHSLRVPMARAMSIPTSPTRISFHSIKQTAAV
T6 sequence (P24387 whole entry): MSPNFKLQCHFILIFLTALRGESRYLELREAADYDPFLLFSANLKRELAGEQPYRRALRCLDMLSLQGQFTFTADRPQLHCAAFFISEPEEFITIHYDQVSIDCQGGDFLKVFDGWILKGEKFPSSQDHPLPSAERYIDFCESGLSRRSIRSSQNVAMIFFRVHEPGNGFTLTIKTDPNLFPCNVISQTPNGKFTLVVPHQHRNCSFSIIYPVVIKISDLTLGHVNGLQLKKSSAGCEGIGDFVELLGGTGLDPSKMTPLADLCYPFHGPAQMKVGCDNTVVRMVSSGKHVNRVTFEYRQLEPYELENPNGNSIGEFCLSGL

cells [16] = assay: cells; remark: listed apart in the source
[17] = target: T6, Corticotropin-releasing factor receptor 2/Corticotropin-releasing factor-binding protein; assay: Dose Response confirmation of uHTS hits for small molecule antagonists of the CRF-binding protein and CRF-R2 receptor complex.; type: functional; conditions: read-out: IC50_Mean
[18] = viability of uninfected HEp-2 cells – cell-based, HTS, cytotoxicity control for RSV inhibitor project, dose response (AID 2410); type: functional; conditions: human respiratory syncytial virus
Vero = assay: mammalian cell viability reduction – secondary assay, cytotoxicity control for West Nile virus antiviral project, dose response (AID 1650); type: functional; conditions: Chlorocebus sabaeus

T1 sequence (Q92731 whole entry): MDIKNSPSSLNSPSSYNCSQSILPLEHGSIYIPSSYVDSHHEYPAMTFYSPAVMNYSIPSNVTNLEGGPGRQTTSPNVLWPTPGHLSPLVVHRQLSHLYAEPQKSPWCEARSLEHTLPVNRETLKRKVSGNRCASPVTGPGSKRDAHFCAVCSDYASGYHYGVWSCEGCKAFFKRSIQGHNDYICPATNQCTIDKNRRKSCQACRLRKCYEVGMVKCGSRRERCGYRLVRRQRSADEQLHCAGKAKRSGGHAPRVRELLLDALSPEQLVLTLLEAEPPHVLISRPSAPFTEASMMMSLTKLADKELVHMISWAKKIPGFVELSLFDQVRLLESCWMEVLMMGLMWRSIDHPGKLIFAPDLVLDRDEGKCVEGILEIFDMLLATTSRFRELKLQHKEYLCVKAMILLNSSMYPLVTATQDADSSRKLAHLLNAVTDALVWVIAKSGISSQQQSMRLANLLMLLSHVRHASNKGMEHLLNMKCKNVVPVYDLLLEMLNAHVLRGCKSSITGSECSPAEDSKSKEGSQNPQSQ
Voltage-gated inwardly rectifying potassium channel KCNH2, sequence (Q12809 whole entry): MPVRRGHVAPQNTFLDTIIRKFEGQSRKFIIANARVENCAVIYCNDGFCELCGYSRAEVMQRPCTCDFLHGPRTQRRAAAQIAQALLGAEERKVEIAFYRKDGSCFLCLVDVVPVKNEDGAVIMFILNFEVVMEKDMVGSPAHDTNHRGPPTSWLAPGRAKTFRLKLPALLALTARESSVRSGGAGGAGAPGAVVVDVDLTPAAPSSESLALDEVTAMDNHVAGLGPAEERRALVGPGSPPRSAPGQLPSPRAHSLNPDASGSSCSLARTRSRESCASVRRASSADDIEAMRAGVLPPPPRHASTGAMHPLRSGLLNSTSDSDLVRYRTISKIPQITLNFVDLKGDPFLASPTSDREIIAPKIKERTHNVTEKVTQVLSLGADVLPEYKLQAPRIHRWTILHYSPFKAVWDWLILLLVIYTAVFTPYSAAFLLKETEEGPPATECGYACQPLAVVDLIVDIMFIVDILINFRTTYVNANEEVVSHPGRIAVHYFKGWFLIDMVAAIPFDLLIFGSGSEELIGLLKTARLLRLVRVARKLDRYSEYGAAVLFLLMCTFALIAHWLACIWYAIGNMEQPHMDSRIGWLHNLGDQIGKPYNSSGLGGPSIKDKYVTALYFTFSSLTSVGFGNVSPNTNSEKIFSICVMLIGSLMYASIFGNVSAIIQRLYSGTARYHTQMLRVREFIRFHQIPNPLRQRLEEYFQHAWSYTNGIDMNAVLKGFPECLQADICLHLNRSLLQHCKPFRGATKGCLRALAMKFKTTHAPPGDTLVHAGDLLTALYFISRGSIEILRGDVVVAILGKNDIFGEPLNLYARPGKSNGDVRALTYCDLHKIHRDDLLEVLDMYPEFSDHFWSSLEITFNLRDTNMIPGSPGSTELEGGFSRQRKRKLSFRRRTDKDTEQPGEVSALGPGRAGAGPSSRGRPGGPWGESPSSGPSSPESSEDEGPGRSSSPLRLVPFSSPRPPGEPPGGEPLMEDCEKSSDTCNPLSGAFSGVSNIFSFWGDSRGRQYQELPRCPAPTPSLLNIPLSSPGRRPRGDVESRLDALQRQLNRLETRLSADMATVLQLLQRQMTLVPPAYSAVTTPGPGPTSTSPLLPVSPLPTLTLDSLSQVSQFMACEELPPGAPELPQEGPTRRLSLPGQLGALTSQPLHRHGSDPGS
Luciferin 4-monooxygenase, sequence (P08659 whole entry): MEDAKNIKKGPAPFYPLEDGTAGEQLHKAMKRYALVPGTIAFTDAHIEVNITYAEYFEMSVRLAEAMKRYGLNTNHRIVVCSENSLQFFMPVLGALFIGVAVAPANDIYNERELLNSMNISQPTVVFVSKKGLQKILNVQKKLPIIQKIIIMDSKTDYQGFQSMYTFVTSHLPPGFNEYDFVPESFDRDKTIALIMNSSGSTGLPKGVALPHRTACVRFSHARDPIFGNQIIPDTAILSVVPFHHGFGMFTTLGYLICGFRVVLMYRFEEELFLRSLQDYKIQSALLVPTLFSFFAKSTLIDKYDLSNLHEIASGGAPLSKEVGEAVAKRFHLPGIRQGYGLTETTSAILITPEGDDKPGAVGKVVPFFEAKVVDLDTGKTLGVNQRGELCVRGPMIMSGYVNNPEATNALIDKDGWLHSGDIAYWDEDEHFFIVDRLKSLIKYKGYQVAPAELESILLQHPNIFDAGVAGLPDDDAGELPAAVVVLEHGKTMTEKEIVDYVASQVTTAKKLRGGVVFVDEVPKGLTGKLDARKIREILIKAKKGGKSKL

**Q.** What does the source list for CCS(=O)(=O)N1Cc2ccccc2CC1C(=O)N1CCN(c2cccc(C)c2C)CC1 (centres undefined)?
**A.** IC50 (Estrogen receptor beta [1]): > 50 µM (not active); IC50 (Estrogen receptor beta [2]): 2.96 µM (not active); IC50 (Bcl-2-like protein 10): 80 µM (inactive)

**Q.** Which IC50 (Estrogen receptor beta [1]) does the source give for CNC(=O)c1c(NC(=O)c2nc3ccccc3s2)sc2c1CCC2 here?
**A.** Its IC50 is > 50 µM (not active).

**Q.** And the IC50 (Estrogen receptor beta [2])?
**A.** The IC50 was < 0.023 µM (not active).

**Q.** With Cn1ccnc1SCc1cn2cc(Br)ccc2n1 as the compound, how does the EC50 [3] read?
**A.** Its EC50 is 7.92 µM (active).

**Q.** What about the EC50 [4] of the same compound?
**A.** The EC50 was 7.22 µM (inconclusive).

**Q.** What about the EC50 [5] of the same compound?
**A.** The EC50 was 38.1 µM (active).

**Q.** And the EC50 (HT-1080)?
**A.** The EC50 was > 50 µM (not active).

**Q.** For O=C(CCc1nc(-c2cccs2)no1)Nc1cnc2ccccc2c1, which IC50 [6] is on record?
**A.** The IC50 was > 100 µM (active).

**Q.** With Cc1nccc(-c2ccc(-n3c(C)ccc3C)cc2)n1 as the compound, how does the IC50 [6] read?
**A.** The IC50 was > 100 µM (active).

**Q.** Which AC50 [7] does the source give for CC1CCCC(NC(=O)NC(=O)CCl)C1C (centres undefined) here?
**A.** Its AC50 is 23.2 µM (active).

**Q.** And the AC50 [8]?
**A.** Its AC50 is 12.4 µM (active).

**Q.** What about the CC50 [9] of the same compound?
**A.** Its CC50 is 10.4 µM (active).

**Q.** And the IC50 [10]?
**A.** The IC50 was 1.02 µM (active).

**Q.** And the EC50 (Protein RecA)?
**A.** Its EC50 is 6.19 µM (active).

**Q.** What does the source list for CCc1c(C)c(C#N)c2nc3ccccc3n2c1NCCN(C)C?
**A.** EC50 [11]: < 0.1 µM (active); EC50 (cells [12]): 0.014 µM (active); EC50 [13]: > 30 µM (not active)

**Q.** For CCOc1ccc2nc(/N=C/c3nc(-c4ccc(Br)cc4)oc3O)sc2c1, which EC50 [14] is on record?
**A.** The EC50 was 0.16 µM (active).

**Q.** And the EC50 [15]?
**A.** The EC50 was > 53 µM (inactive).

**Q.** What does the source list for Cc1cc(=O)oc2c1ccc1oc(/C(=N/O)c3ccccc3)c(C)c12?
**A.** IC50 (cells [16]): 18.3 µM (active); EC50 [15]: > 53 µM (inactive); IC50 [17]: 24.5 µM (active); CC50 [18]: < 0.1 µM (active); CC50 (Vero): 18.1 µM (active)

**Q.** Which results are given for O=c1cnn([C@@H]2O[C@H](CO)[C@@H](O)[C@H]2O)c(=O)[nH]1 [6-AZAURIDINE]?
**A.** IC50 (cells [16]): 2.28 µM (active); CC50 [18]: 11.9 µM (active); IC50 [10]: 2.32 µM (active)
